Assay results from patent US8748417B2, “Amino-pyrrolidine-azetidine diamides as monoacylglycerol lipase inhibitors” (Janssen Pharmaceutica, NV, priority 2010, dated 2014).
Positions count from the first letter of the chain named.

Assays:
Assay type in all cases: biochemical
[1] = tested on: MGL (rat brain homogenate); test: 2-AG accumulation assay in rat brain homogenate; settings: percent of vehicle 2-AG accumulation; for Rat Brain 2AG % VehCntrl (%) @10 μM: compound 10 μM; for Rat Brain 2AG % VehCntrl (%) @1 μM: compound 1 μM
Method in brief: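 Rat brain homogenate was incubated with compound for 15 min at 37° C., after which CaCl2 was added to a final concentration of 10 mM and incubation continued for 15 min at 37° C. in 5 mL total. Reactions were stopped with 6 mL of 2:1 chloroform/methanol, and 2-AG accumulated in the organic phase was quantified by HPLC/MS.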

[2] = target: T1, purified mutant MGL (mut-MGLL 11-313 L179S L186S) (Homo sapiens, UniProt Q99685, L169S/L176S); test: MGL enzyme activity assay (4MU-B cleavage), mutant MGL; settings: mutant MGL 5 nM, 4MU-B 10 μM, 37° C.; read-out: MGL mutant inh IC50
T1 construct: purified mutant MGL (mut-MGLL 11-313 L179S L186S)
T1 sequence (Q99685 1-303 L169S/L176S): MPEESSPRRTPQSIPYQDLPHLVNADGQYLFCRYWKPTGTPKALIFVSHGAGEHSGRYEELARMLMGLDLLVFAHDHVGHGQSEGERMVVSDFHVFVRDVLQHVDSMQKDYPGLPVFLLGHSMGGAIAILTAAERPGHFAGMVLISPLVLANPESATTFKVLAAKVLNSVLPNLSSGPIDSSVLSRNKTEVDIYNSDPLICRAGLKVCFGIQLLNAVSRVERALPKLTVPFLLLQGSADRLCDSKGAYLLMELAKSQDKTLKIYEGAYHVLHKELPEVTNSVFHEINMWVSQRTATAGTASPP
Protocol: All rate-based assays were performed in black 384-well polypropylene PCR microplates (Abgene) in a total volume of 30 μL. Substrate 4-methylumbelliferyl butyrate (4MU-B; Sigma) and either purified mutant MGL (mut-MGLL 11-313 L179S L186S) or purified wild type MGL (wt-MGLL 6H-11-313) were diluted separately into 20 mM PIPES buffer (pH=7.0), containing 150 mM NaCl and 0.001% Tween 20. Compounds of Formula (I) were pre-dispensed (50 nL) into the assay plate using a Cartesian Hummingbird prior to adding 4MU-B (25 μL of 1.2× solution to a final concentration of 10 μM) followed by enzyme (5 μL of a 6× solution to a final concentration of 5 nM) to initiate the reaction. Final compound concentrations ranged from 17 to 0.0003 μM. The fluorescence change due to 4MU-B cleavage was monitored with excitation and emission wavelengths of 335 and 440 nm, respectively, and a bandwidth of 10 nm (Safire^2, Tecan) at 37° C. for 5 min.
The IC50 values for the following compounds were determined using Microsoft Office Excel from a fit of the equation to the concentration-response plot of the fractional activity as a function of inhibitor concentration.

[3] = target: T2, purified wild type MGL (wt-MGLL 6H-11-313) (Homo sapiens, UniProt Q99685); test: MGL enzyme activity assay (4MU-B cleavage), wild type MGL; settings: wild type MGL 5 nM, 4MU-B 10 μM, 37° C.; read-out: MGL wild type inh IC50
T2 construct: purified wild type MGL (wt-MGLL 6H-11-313)
T2 sequence (Q99685 1-303): T1 sequence (Q99685 1-303 L169S/L176S) with S169L, S176L
Method in brief: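 Enzyme in 20 mM PIPES pH 7.0, 150 mM NaCl, 0.001% Tween 20 with 4MU-B at 10 μM final and MGL at 5 nM final; compounds 17 to 0.0003 μM final, enzyme added last. Fluorescence (ex 335/em 440 nm) followed at 37° C for 5 min; IC50 from fit of fractional activity versus inhibitor concentration.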

## O=C(c1ccc(Cc2ccccc2)cc1)N1CC(N[C@H]2CCN(C(=O)c3nccs3)C2)C1 [Cpd 3, (3S)-N-{1-[(4-Benzylphenyl)carbonyl]azetidin-3-yl}-1-(1,3-thiazol-2-ylcarbonyl)pyrrolidin-3-amine]
[1]
  Rat Brain 2AG % VehCntrl (%) @10 μM: 844%
[2]
  IC50: 0.0218 µM

## O=C(c1ccc2c(Br)cccc2c1)N1CC(N[C@H]2CCN(C(=O)c3ccccc3)C2)C1 [Cpd 22, (3S)-N-{1-[(5-Bromonaphthalen-2-yl)carbonyl]azetidin-3-yl}-1-(phenylcarbonyl)pyrrolidin-3-amine]
[1]
  Rat Brain 2AG % VehCntrl (%) @1 μM: 223%
[2]
  IC50: 0.0335 µM

## Cn1cc(-c2ccccc2)c2ccc(C(=O)N3CC(N[C@H]4CCN(C(=O)c5ccccc5)C4)C3)cc21 [Cpd 64, (3S)-N-{1-[(1-Methyl-3-phenyl-1H-indol-6-yl)carbonyl]azetidin-3-yl}-1-(phenylcarbonyl)pyrrolidin-3-amine]
[3]
  IC50: 0.0709 µM
[1]
  Rat Brain 2AG % VehCntrl (%) @1 μM: 182%
[2]
  IC50: 0.0395 µM

## O=C(c1ccccc1)N1CC[C@H](NC2CN(C(=O)c3sc4cc(-c5ccccc5)ccc4c3Cl)C2)C1 [Cpd 31, (3S)-N-{1-[(3-Chloro-6-phenyl-1-benzothiophen-2-yl)carbonyl]azetidin-3-yl}-1-(phenylcarbonyl)pyrrolidin-3-amine]
[3]
  IC50: < 0.005 µM
[1]
  Rat Brain 2AG % VehCntrl (%) @1 μM: 323%
[2]
  IC50: 0.005 µM

## Cc1c(C(=O)N2CC(N[C@H]3CCN(C(=O)c4ccccc4)C3)C2)sc2ccccc12 [Cpd 68, (3S)-N-{1-[(3-Methyl-1-benzothiophen-2-yl)carbonyl]azetidin-3-yl}-1-(phenylcarbonyl)pyrrolidin-3-amine]
[1]
  Rat Brain 2AG % VehCntrl (%) @1 μM: 161%
[2]
  IC50: 0.0845 µM

## O=C(c1ccccc1)N1CC[C@H](NC2CN(C(=O)c3cc4ccc(C(F)(F)F)cc4s3)C2)C1 [Cpd 20, (3S)-1-(Phenylcarbonyl)-N-(1-{[6-(trifluoromethyl)-1-benzothiophen-2-yl]carbonyl}azetidin-3-yl)pyrrolidin-3-amine]
[1]
  Rat Brain 2AG % VehCntrl (%) @1 μM: 304%
[2]
  IC50: 0.0804 µM

## CN(C1CN(C(=O)c2ccc(Cc3ccccc3)cc2)C1)[C@H]1CCN(C(=O)c2ccccc2)C1 [Cpd 14, (3S)-N-{1-[(4-Benzylphenyl)carbonyl]azetidin-3-yl}-N-methyl-1-(phenylcarbonyl) pyrrolidin-3-amine]
[1]
  Rat Brain 2AG % VehCntrl (%) @1 μM: 484%
[2]
  IC50: 0.005 µM

## Cc1c(C(=O)N2CC(N[C@H]3CCN(C(=O)c4ccccc4)C3)C2)sc2ccc(Cl)cc12 [Cpd 37, (3S)-N-{1-[(5-Chloro-3-methyl-1-benzothiophen-2-yl)carbonyl]azetidin-3-yl}-1-(phenylcarbonyl)pyrrolidin-3-amine]
[1]
  Rat Brain 2AG % VehCntrl (%) @1 μM: 381%
[2]
  IC50: 0.0477 µM

## O=C(c1ccccc1)N1CC[C@H](NC2CN(C(=O)c3sc4cc(C(F)(F)F)ccc4c3Cl)C2)C1 [Cpd 28, (3S)-N-(1-{[3-Chloro-6-(trifluoromethyl)-1-benzothiophen-2-yl]carbonyl}azetidin-3-yl)-1-(phenylcarbonyl)pyrrolidin-3-amine]
[1]
  Rat Brain 2AG % VehCntrl (%) @1 μM: 511%
[2]
  IC50: < 0.005 µM

## O=C(c1ccc(C(F)(F)c2ccccc2)cc1)N1CC(N[C@H]2CCN(C(=O)c3ccccc3)C2)C1 [Cpd 73, (3S)-N-[1-({4-[Difluoro(phenyl)methyl]phenyl}carbonyl)azetidin-3-yl]-1-(phenylcarbonyl)pyrrolidin-3-amine]
[1]
  Rat Brain 2AG % VehCntrl (%) @1 μM: 441%
[2]
  IC50: 0.0158 µM

## O=C(c1ccc2c(c1)Cc1ccccc1-2)N1CC(N[C@H]2CCN(C(=O)c3ccccc3)C2)C1 [Cpd 27, (3S)-N-[1-(9H-Fluoren-2-ylcarbonyl)azetidin-3-yl]-1-(phenylcarbonyl)pyrrolidin-3-amine]
[1]
  Rat Brain 2AG % VehCntrl (%) @1 μM: 125%
[2]
  IC50: 0.0967 µM

## O=C(c1ccc(Cc2ccccc2)cc1)N1CC(N[C@H]2CCN(C(=O)c3ccsc3)C2)C1 [Cpd 5, (3S)-N-{1-[(4-Benzylphenyl)carbonyl]azetidin-3-yl}-1-(thiophen-3-ylcarbonyl)pyrrolidin-3-amine]
[1]
  Rat Brain 2AG % VehCntrl (%) @10 μM: 962%
[2]
  IC50: < 0.005 µM

## O=C(c1ccc(-c2ccccc2)cc1)N1CC(NC2CN(C(=O)c3ccccc3)CC2F)C1 (stereo not shown) [Cpd 58, N-[1-(Biphenyl-4-ylcarbonyl)azetidin-3-yl]-4-fluoro-1-(phenylcarbonyl)pyrrolidin-3-amine]
[3]
  IC50: 0.464 µM
[2]
  IC50: 0.033 µM

## O=C(c1ccc(-c2cc(Cl)cc(Cl)c2)cc1)N1CC(N[C@H]2CCN(C(=O)c3ccccc3)C2)C1 [Cpd 17, (3S)-N-{1-[(3′,5′-Dichlorobiphenyl-4-yl)carbonyl]azetidin-3-yl}-1-(phenylcarbonyl)pyrrolidin-3-amine]
[1]
  Rat Brain 2AG % VehCntrl (%) @1 μM: 441%
[2]
  IC50: 0.041 µM

## O=C(c1ccc2c(-c3ccccc3)cccc2c1)N1CC(N[C@H]2CCN(C(=O)c3ccccc3)C2)C1 [Cpd 23, (3S)-1-(Phenylcarbonyl)-N-{1-[(5-phenylnaphthalen-2-yl)carbonyl]azetidin-3-yl}pyrrolidin-3-amine]
[1]
  Rat Brain 2AG % VehCntrl (%) @1 μM: 293%
[2]
  IC50: 0.0149 µM

## O=C(c1ccc2c(Br)cccc2c1)N1CC(N(O)[C@H]2CCN(C(=O)c3ccccc3)C2)C1 [Cpd 34, (3S)-N-{1-[(5-Bromonaphthalen-2-yl)carbonyl]azetidin-3-yl}-N-hydroxy-1-(phenylcarbonyl)pyrrolidin-3-amine]
[1]
  Rat Brain 2AG % VehCntrl (%) @1 μM: 645%
[2]
  IC50: 0.0132 µM

## O=C(c1ccccc1)N1CC[C@H](NC2CN(C(=O)c3sc4cc(Br)ccc4c3Cl)C2)C1 [Cpd 21, (3S)-N-{1-[(6-Bromo-3-chloro-1-benzothiophen-2-yl)carbonyl]azetidin-3-yl}-1-(phenylcarbonyl)pyrrolidin-3-amine]
[1]
  Rat Brain 2AG % VehCntrl (%) @1 μM: 596%
[2]
  IC50: 0.005 µM

## O=C(c1ccccc1)N1CC[C@H](NC2CN(C(=O)c3cc4cc(Br)ccc4s3)C2)C1 [Cpd 49, (3S)-N-{1-[(5-Bromo-1-benzothiophen-2-yl)carbonyl]azetidin-3-yl}-1-(phenylcarbonyl)pyrrolidin-3-amine]
[3]
  IC50: 0.48 µM
[2]
  IC50: 0.357 µM

## O=C(c1ccccc1)N1CC[C@H](NC2CN(C(=O)c3cc4cc(-c5cccc(C(F)(F)F)c5)ccc4s3)C2)C1 [Cpd 51, (3S)-1-(Phenylcarbonyl)-N-[1-({5-[3-(trifluoromethyl)phenyl]-1-benzothiophen-2-yl}carbonyl)azetidin-3-yl]pyrrolidin-3-amine]
[3]
  IC50: < 0.005 µM
[2]
  IC50: 0.229 µM

## O=C(c1ccc2c(-c3ccccc3C(F)(F)F)cccc2c1)N1CC(N[C@H]2CCN(C(=O)c3ccccc3)C2)C1 [Cpd 24, (3S)-1-(Phenylcarbonyl)-N-[1-({5-[2-(trifluoromethyl)phenyl]naphthalen-2-yl}carbonyl)azetidin-3-yl]pyrrolidin-3-amine]
[1]
  Rat Brain 2AG % VehCntrl (%) @1 μM: 706%
[2]
  IC50: 0.0085 µM

## O=C(c1ccccc1)N1CC[C@H](NC2CN(C(=O)c3sc4cc(F)ccc4c3C3CC3)C2)C1 [Cpd 70, (3S)-N-{1-[(3-Cyclopropyl-6-fluoro-1-benzothiophen-2-yl)carbonyl]azetidin-3-yl}-1-(phenylcarbonyl)pyrrolidin-3-amine]
[1]
  Rat Brain 2AG % VehCntrl (%) @1 μM: 217%
[2]
  IC50: 0.0255 µM

## O=C(c1ccc(Cc2ccccc2)cc1)N1CC(N[C@H]2CCN(C(=O)c3ccccc3)C2)C1 [Cpd 4, (3S)-N-{1-[(4-Benzylphenyl)carbonyl]azetidin-3-yl}-1-(phenylcarbonyl)pyrrolidin-3-amine]
[1]
  Rat Brain 2AG % VehCntrl (%) @10 μM: 1033%
[2]
  IC50: 0.012 µM
